Data published in patent publication US12453722B2, “Maleate of nicotinyl alcohol ether derivative, crystal form thereof, and application thereof” (INSTITUTE OF MATERIA MEDICA, CHINESE ACADEMY OF MEDICAL …, priority 2019, dated 2025).
“And” between values parts separate entries of the source, which are not always exact repeats. Identical values can stand only once. Marks after values point to notes of the source that are not given here.

What was measured:
[1] = tested on: human lung cancer NCI-H460; assay: In vivo antitumor effect, human lung cancer NCI-H460 model in NSG mice reconstructed by human immune system; conditions: for Tumor volume X ± SD, Day 1 / Tumor volume X ± SD, Day 20 / Tumor weight (g) X ± SD: NCI-H460, NSG mice with human PBMCs; for TGI %: NCI-H460, TGI=(1-T/C)×100 by tumor weight
Method: The in vivo antitumor effects of the compound of Example 1 and the compound of Example 2 as PD-L1 inhibitors were evaluated on the NCI-H460 model of human lung cancer in NSG tumor-bearing mice reconstructed by human immune system. […]
Experimental steps: PBMCs were obtained by isolation of fresh human leukocytes, then inoculated into NSG mice through caudal vein, and each mouse was inoculated with 1×10^7. On the third day. NCI-H460 tumor cells were inoculated into the armpit of mice, and each mouse was inoculated with 1×10^6. After the tumors grew to 100˜300 mm^3, the mice were administered in groups. The mice in the solvent control group were administrated with 0.5% CMC orally every day. […] The compounds to be tested were administered orally once a day. The animals were weighed and killed during treatment. The tumor tissues were stripped, weighed and photographed. Finally, the tumor inhibition rates were calculated to evaluate the intensity of antitumor effect.
(§1) Calculation and statistical method: tumor proliferation inhibition rate TGI (%): TGI=(1-T/C)×100. (T: tumor weight in the treatment group: C: tumor weight in the negative control group). Statistical method: Graphpad was used for data statistical analysis, and One-way ANOVA test was used, * P<0.05, * * P<0.01, * * * P<0.001.

[2] = tested on: mouse colon cancer MC38; assay: In vivo antitumor effect, subcutaneous transplanted tumor model of mouse colon cancer MC38; conditions: for Body weight (g) X ± SD, End / Body weight (g) X ± SD, Start / Tumor weight (g) X ± SD: MC38, C57BL/6J mice; for TGI %: MC38, TGI=(1-T/C)×100 by tumor weight
Method: The in vivo antitumor effects of the compound of Example 1 and the compound of Example 2 as PD-L1 inhibitors on mouse colon cancer MC38 were evaluated on the subcutaneous transplanted tumor model of mice.
(§2) Experimental steps: the subcultured MC38 tumor strain was ground with a homogenizer, washed twice with sterile normal saline and counted, and the cell concentration of tumor cell suspension was adjusted with normal saline to 9×10^6/ml, 0.2 ml of the cell suspension was inoculated into the right armpit of C57BL/6J mice and the day was recorded as day 0. The next day after inoculation, the animals were randomly divided into groups, weighed and administered. The mice in the solvent control group were administrated with 0.5% CMC orally every day. […] The compounds to be tested were administered orally once a day. The animals were weighed and killed during treatment. The tumor tissues were stripped, weighed and photographed. Finally, the tumor inhibition rates were calculated to evaluate the intensity of antitumor effect.
as §1

[3] = tested on: mouse melanoma B16F10; assay: In vivo antitumor effect, subcutaneous transplanted tumor model of mouse melanoma B16F10; conditions: for TGI %: B16F10, TGI=(1-T/C)×100 by tumor weight
Method: The in vivo antitumor effects of the compound of Example 1 and the compound of Example 2 as PD-L1 inhibitors on mouse melanoma B16F10 were evaluated on the subcutaneous transplanted tumor model of mice.
as §2, with “B16F10” for “MC38”, “9×10^6/ml.” for “9×10^6/ml,”
as §1, with “group;” for “group:”

[4] = log P (physical and chemical properties); format: physicochemical
[5] = Influencing factor test (stability at high temperature, high humidity, illumination); format: physicochemical
Method: When the temperature rose to the top of DSC endothermic peak (about 175° C.), the weight loss was obvious, which was the weight loss caused by the melting decomposition of the sample. The DSC endothermic peak was the decomposition point of the compound of Example 2. 4.
• (1) Physical and chemical properties • Appearance: white solid • Melting point: 174.68° C.
The compound of Example 2 was stable under the conditions of illumination, high temperature and high humidity.

[6] = tested on: pleural mesothelioma (PM); conditions: 25 patients with pleural mesothelioma (PM); cited from earlier work
[7] = 80 × 1 mg/kg, intraperitoneal, B16F10, C57BL/6J mice, 1 mg/kg
[8] = 2.5 × 14 mg/kg, oral once a day
[9] = 5 × 14 mg/kg, oral once a day, B16F10, C57BL/6J mice
[10] = 10 × 14 mg/kg, oral once a day, B16F10, C57BL/6J mice

O=P1(N(CCCl)CCCl)NCCCO1 (stereo not drawn) [CTX, cyclophosphamide]
Tumor volume X ± SD, Day 1 ([1]; 100 × 1 mg/kg, intraperitoneal): 165.4 ± 22.4
Tumor volume X ± SD, Day 20 ([1]; 100 × 1 mg/kg, intraperitoneal): 556.5 ± 81.1
Tumor weight (g) X ± SD ([1]; 100 × 1 mg/kg, intraperitoneal): 0.90 ± 0.15*** g
TGI % ([1]; 100 × 1 mg/kg, intraperitoneal): 66.9%
Body weight (g) X ± SD, End ([2]; 40 × 1 mg/kg, intraperitoneal): 21.7 ± 1.4 g
Body weight (g) X ± SD, Start ([2]; 40 × 1 mg/kg, intraperitoneal): 18.8 ± 0.9 g
Tumor weight (g) X ± SD ([2]; 40 × 1 mg/kg, intraperitoneal): 1.30 ± 1.44** g
TGI % ([2]; 40 × 1 mg/kg, intraperitoneal): 67%
Body weight (g) X ± SD, End ([2]; 40 × 2 mg/kg, intraperitoneal): 24.5 ± 0.9 g
Body weight (g) X ± SD, Start ([2]; 40 × 2 mg/kg, intraperitoneal): 22.0 ± 0.8 g
Tumor weight (g) X ± SD ([2]; 40 × 2 mg/kg, intraperitoneal): 0.17 ± 0.10** g
TGI % ([2]; 40 × 2 mg/kg, intraperitoneal): 90%
Body weight (g) X ± SD, End [3, 7]: 19.2 ± 0.8 g and 17.5 ± 0.9 g
Body weight (g) X ± SD, Start [3, 7]: 16.94 ± 0.43 g and 16.9 ± 0.8 g
TGI % ([3]; 80 × 1 mg/kg, intraperitoneal, 1 mg/kg): 90% and 70%

CC(C)OC(=O)[C@H](CO)NCc1cc(Cl)c(OCc2cccc(-c3ccccc3)c2Br)cc1OCc1cccnc1.O=C(O)/C=C\C(=O)O [Example 2, isopropyl (S)-N-(2-(pyridine-3-yl-methoxy)-4-(2-bromo-3-phenylbenzyloxy)-5-chlorobenzyl) serinate maleate]
log P [4]: 3.2
Tumor volume X ± SD, Day 1 ([1]; 15 × 14 mg/kg, oral once a day): 166.5 ± 24.5
Tumor volume X ± SD, Day 20 ([1]; 15 × 14 mg/kg, oral once a day): 1405.2 ± 442.9
TGI % ([1]; 15 × 14 mg/kg, oral once a day): 30.6%
Comparison of tumor inhibition rate at the same dosage ([1]; Tumor model NSG NCI-H460): Compound of the Example 2 (maleate) > Compound
Appearance ([5]; 60° C., 10 days): white
Chiral impurities (%) ([5]; 60° C., 10 days): 0.2%
Melting point (DSC method, ° C.) ([5]; 60° C., 10 days): 174.64 °C
Purity (%) ([5]; 60° C., 10 days): 98.7%
Related substances (%) ([5]; 60° C., 10 days): 1.3%
Appearance ([5]; Illumination, 10 days): white
Chiral impurities (%) ([5]; Illumination, 10 days): 0.2%
Melting point (DSC method, ° C.) ([5]; Illumination, 10 days): 174.60 °C
Purity (%) ([5]; Illumination, 10 days): 98.6%
Related substances (%) ([5]; Illumination, 10 days): 1.4%
Appearance ([5]; Initial): white
Chiral impurities (%) ([5]; Initial): 0.2%
Melting point (DSC method, ° C.) ([5]; Initial): 174.68 °C
Purity (%) ([5]; Initial): 98.7%
Related substances (%) ([5]; Initial): 1.3%
Appearance ([5]; RH 92.5%, 10 days): white
Chiral impurities (%) ([5]; RH 92.5%, 10 days): 0.2%
Melting point (DSC method, ° C.) ([5]; RH 92.5%, 10 days): 174.57 °C
Purity (%) ([5]; RH 92.5%, 10 days): 98.7%
Related substances (%) ([5]; RH 92.5%, 10 days): 1.3%
Stability under illumination, high temperature and high humidity ([5]; illumination, 60° C., RH 92.5%, 10 days): stable
Tumor weight (g) X ± SD [2, 8]: 1.13 ± 0.78 g
TGI % [2, 8]: 34%
Tumor weight (g) X ± SD ([2]; 5 × 14 mg/kg, oral once a day): 0.42 ± 0.39*** g
TGI % ([2]; 5 × 14 mg/kg, oral once a day): 75%
Tumor weight (g) X ± SD ([2]; 10 × 14 mg/kg, oral once a day): 0.73 ± 0.54** g
TGI % ([2]; 10 × 14 mg/kg, oral once a day): 57%
Comparison of tumor inhibition rate at the same dosage ([2]; Tumor model MC38): Compound of the Example 2 (maleate) > Compound
Tumor weight (g) X ± SD [3, 9]: 1.39 ± 0.84* g
TGI % ([3]; 5 × 14 mg/kg, oral once a day): 40%
Tumor weight (g) X ± SD [3, 10]: 1.04 ± 0.66** g
TGI % ([3]; 10 × 14 mg/kg, oral once a day): 55%
Comparison of tumor inhibition rate at the same dosage ([3]; Tumor model B16F10): Compound of the Example 2 (maleate) > Compound

CC(C)OC(=O)[C@H](CO)NCc1cc(Cl)c(OCc2cccc(-c3ccccc3)c2Br)cc1OCc1cccnc1.Cl.Cl [Example 1, isopropyl (S)-N-[2-(pyridine-3-yl-methoxy)-4-(2-bromo-3-(phenyl)benzyloxy)-5-chlorobenzyl] serinate hydrochloride]
logP [4]: 2.4
Tumor volume X ± SD, Day 1 ([1]; 15 × 14 mg/kg, oral once a day): 161.9 ± 21.0
Tumor volume X ± SD, Day 20 ([1]; 15 × 14 mg/kg, oral once a day): 1441.4 ± 337.6
Tumor weight (g) X ± SD ([1]; 15 × 14 mg/kg, oral once a day): 2.06 ± 0.22 g
TGI % ([1]; 15 × 14 mg/kg, oral once a day): 24.7%
Appearance ([5]; 60° C., 5 days): off white powder
Melting point (DSC method, ° C.) ([5]; 60° C., 5 days): 118.69 °C
Purity (%) ([5]; 60° C., 5 days): 99.5%
Related substances (%) ([5]; 60° C., 5 days): 0.5%
Appearance ([5]; Illumination, 5 days): transparent bulk
Purity (%) ([5]; Illumination, 5 days): 96.0%
Related substances (%) ([5]; Illumination, 5 days): 4.0%
Stability under illumination conditions ([5]; Illumination, 5 days): unstable
Appearance ([5]; Initial): off white powder
Melting point (DSC method, ° C.) ([5]; Initial): 119.36 °C
Purity (%) ([5]; Initial): 99.5%
Related substances (%) ([5]; Initial): 0.5%
Purity (%) ([5]; RH 92.5%, 5 days): 99.5%
Appearance ([5]; RH 92.5%, 5 days, hydrochloride): colorless viscous liquid
Moisture absorption ([5]; high humidity of RH92.5%, 5 days): serious moisture absorption
Stability under high temperature conditions ([5]; high temperature of 60° C., 5 days): stable
Tumor weight (g) X ± SD ([2]; 5 × 14 mg/kg, oral once a day): 3.21 ± 0.28*** g
TGI % ([2]; 5 × 14 mg/kg, oral once a day): 18%
Tumor weight (g) X ± SD ([2]; 10 × 14 mg/kg, oral once a day): 2.86 ± 1.36** g
TGI % ([2]; 10 × 14 mg/kg, oral once a day): 27%
Tumor weight (g) X ± SD [3, 9]: 3.11 ± 0.98* g
TGI % ([3]; 5 × 14 mg/kg, oral once a day): 11%
Tumor weight (g) X ± SD [3, 10]: 3.04 ± 0.94** g
TGI % ([3]; 10 × 14 mg/kg, oral once a day): 13%

Keytruda: first FDA approved PD-1 monoclonal antibody, from Merck
disease control rate [6]: 76%
overall response rate (ORR) [6]: 28%
